Where two headings read alike, the source gives them in different places.
Target: T1, IRAK4 (Homo sapiens, UniProt Q9NWZ3)
T1 sequence (Q9NWZ3 1-460): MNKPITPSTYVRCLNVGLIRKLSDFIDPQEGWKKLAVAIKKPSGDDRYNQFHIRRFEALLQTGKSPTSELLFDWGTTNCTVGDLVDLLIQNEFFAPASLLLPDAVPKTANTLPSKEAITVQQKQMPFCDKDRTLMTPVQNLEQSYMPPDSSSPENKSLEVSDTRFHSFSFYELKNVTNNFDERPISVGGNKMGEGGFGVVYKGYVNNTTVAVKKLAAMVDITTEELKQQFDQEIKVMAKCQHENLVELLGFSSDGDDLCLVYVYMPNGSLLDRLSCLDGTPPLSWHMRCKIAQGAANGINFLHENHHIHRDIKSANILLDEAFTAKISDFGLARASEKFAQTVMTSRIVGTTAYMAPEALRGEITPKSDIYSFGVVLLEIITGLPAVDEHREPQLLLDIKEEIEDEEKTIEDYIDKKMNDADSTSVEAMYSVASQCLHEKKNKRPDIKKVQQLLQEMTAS
Test: Hibit fluorescence detection of proteolysis (IRAK4-HiBiT in HEK293T cells)
Format: cell-based
Set-up: host or cells: HEK293T (ATCC)
Details: for Dmax: HEK-293T
Description: Utilizing HiBiT tag technology, the HiBiT tag-containing sequence (Seq. ID. No. 1, Beijing Tsingke Biotech Co., Ltd.) was connected to the IRAK4 plasmid (Seq. ID. No. 2, Beijing Tsingke Biotech Co., Ltd.), and the plasmid was transfected into HEK293T cells (ATCC). […] The 6-well plate that was incubated overnight was taken out. After the plate was left at room temperature for 15 min, the obtained mixture was added dropwise to the 6-well plate. […] Culture was performed at 37°C and 5% CO2 for 24 h. The 384-well plate was taken out and equilibrated to room temperature. 40 µL of Nano-Glo® HiBiT Lytic Detection System (Promega N3030) was added to each well and incubated at room temperature for 15 min. […] Prism 9.3 software was used to perform fitting analysis for data, and non-linear fitting (non-liner inhibitor (Bell-shaped)) and four parameters (4 parameter) were used, and the parameters was as follows: Span1 = Plateau1−Dip [formula] Span2 = Plateau2−Dip [formula] Section1 = Span1/(1+10^(∧)((LogEC50_1−X)*nH1)) [formula] Section2 = Span2/(1+10^(∧)((X−LogEC50_2)*nH2)) [formula]
The equation was as follows: Y=Dip+Section1+Section2. • Seq. ID. No. 1 ([…]), other DNA, synthetic construct, sequence length 33; • Seq. ID. No. 2 [formula]

[1] = IRAK4-HiBiT, HEK293T cells, 24 h, read-out: DC50
[2] = IRAK4-HiBiT, HEK293T cells, 24 h

| Dmax (IRAK4-HiBiT, HEK293T cells, 24 h, read-out: Dmax) [%] | SMILES | Dmax [%] | DC50 [1] [nM] | DC50 [2] [nM] |
| --- | --- | --- | --- | --- |
| – | Cn1c(=O)n(C2CCC(=O)NC2=O)c2cccc(N[C@H]3CC[C@H](N(C)C[C@H]4CC[C@H](n5cc(-n6cc(-c7cnn8ccc(NCC9CC9)nc78)nn6)c(C(F)F)n5)CC4)CC3)c21 (stereo partly shown) [Compound 226] | > 80 | < 0.5 | – |
| – | CN(CC1CCN(CCC#Cc2cccc3c2n(C)c(=O)n3C2CCC(=O)NC2=O)CC1)C[C@H]1CC[C@H](n2cc(-n3cc(-c4cnn5ccc(N6CCOCC6)nc45)nn3)c(C(F)F)n2)CC1 (stereo partly shown) [Example 25] | < 60 | – | < 0.5 |
| – | Cn1c(=O)n(C2CCC(=O)NC2=O)c2cccc(N3CCN(C4CCN(C[C@H]5CC[C@H](n6cc(-n7cc(-c8cnn9ccc(N%10CCOCC%10)nc89)nn7)c(C(F)F)n6)CC5)CC4)CC3)c21 (stereo partly shown) [Example 40] | > 80 | – | < 0.5 |
| – | Cn1c(=O)n(C2CCC(=O)NC2=O)c2cccc(C3CCN(C[C@H]4CC[C@H](n5cc(-n6cc(-n7ccc8cc(C(N)=O)cnc87)nn6)c(C(F)F)n5)CC4)CC3)c21 (stereo partly shown) [Example 101, 1-(1-(3-(difluoromethyl)-1-((1r,4r)-4-((4-(1-(2,6-dioxopiperidin-3-yl)-3-methyl-2-oxo-2,3-dihydro-1H-benzo[d]imidazol-4-yl)piperidin-1-yl)methyl)cyclohexyl)-1H-pyrazol-4-yl)-1H-1,2,3-triazol-4-yl)-1H-pyrrolo[2,3-b]pyridine-5-carboxamide] | 70 to 80 | – | < 0.5 |
| – | Cn1c(=O)n(C2CCC(=O)NC2=O)c2cccc(CNC3CC4(CCN(C[C@H]5CC[C@H](n6cc(-n7cc(-c8cnn9ccc(N%10CCOCC%10)nc89)nn7)c(C(F)F)n6)CC5)CC4)C3)c21 (stereo partly shown) [Example 10] | > 80 | – | < 0.5 |
| – | Cn1c(=O)n(C2CCC(=O)NC2=O)c2cccc(N3CCN(C[C@H]4CC[C@H](n5cc(-n6cc(-c7cnn8ccc(N[C@@H]9CCCC[C@@H]9O)nc78)nn6)c(C(F)F)n5)CC4)CC3)c21 (stereo partly shown) [Example 268] | 70 to 80 | – | 0.5 to 1 |
| – | Cn1c(=O)n(C2CCC(=O)NC2=O)c2cccc(CN3CC4(C3)CN(C[C@H]3CC[C@H](n5cc(-n6cc(-c7cnn8ccc(N9CCOCC9)nc78)nn6)c(C(F)F)n5)CC3)C4)c21 (stereo partly shown) [Example 12, 3-(4-((6-(((1r,4r)-4-(3-(difluoromethyl)-4-(4-(5-morpholinopyrazolo[1,5-a]pyrimidin-3-yl)-1H -1,2,3-triazol-1-yl)-1H-pyrazol-1-yl)cyclohexyl)methyl)-2,6-diazaspiro[3.3]hept-2-yl)methyl)-3-methyl-2-oxo-2,3-dihydro-1H-benzo[d]imidazol-1-yl)piperidine-2,6-dione] | 70 to 80 | – | < 0.5 |
| – | C[C@@H]1CN(c2cccc3c2n(C)c(=O)n3C2CCC(=O)NC2=O)CCN1C[C@H]1CC[C@H](n2cc(-n3cc(-c4cnn5ccc(N6CCOCC6)nc45)nn3)c(C(F)F)n2)CC1 (stereo partly shown) [Example 50] | 60 to 70 | – | 0.5 to 1 |
| – | Cn1c(=O)n(C2CCC(=O)NC2=O)c2cccc(CC3CCN(CC4CCN(C[C@H]5CC[C@H](n6cc(-n7cc(-c8cnn9ccc(N%10CCOCC%10)nc89)nn7)c(C(F)F)n6)CC5)CC4)CC3)c21 (stereo partly shown) [Example 8] | < 60 | – | > 5 |
| < 60 | NC(=O)c1cnn2c(-c3cn(-c4cn(C5CCN(CC6CCN(c7ccc8c(c7)C(=O)N(C7CCC(=O)NC7=O)C8=O)CC6)CC5)nc4C(F)F)nn3)ccc2c1 (stereo not shown) [Example 94, 7-(1-(3-(difluoromethyl)-1-(1-((1-(2-(2,6-dioxopiperidin-3-yl)-1,3-dioxoisoindolin-5-yl)piperidin-4-yl)methyl)piperidin-4-yl)-1H-pyrazol-4-yl)-1H-1,2,3-triazol-4-yl)pyrrolo[1,2-b]pyridazine-3-carboxamide] | – | < 0.5 | – |
| – | Cn1c(=O)n(C2CCC(=O)NC2=O)c2cccc(N3CCN(C4CCN(C[C@H]5CC[C@H](n6cc(-n7cc(-n8ccc9cc(C(N)=O)cnc98)nn7)c(C(F)F)n6)CC5)CC4)CC3)c21 (stereo partly shown) [Example 104, 1-(1-(3-(difluoromethyl)-1-((1r,4r)-4-((4-(4-(1-(2,6-dioxopiperidin-3-yl)-3-methyl-2-oxo-2,3-dihydro-1H-benzo[d]imidazol-4-yl)piperazin-1-yl)piperidin-1-yl)methyl)cyclohexyl)-1H-pyrazol-4-yl)-1H-1,2,3-triazol-4-yl)-1H-pyrrolo[2,3-b]pyridine-5-carboxamide] | > 80 | – | < 0.5 |
| – | CN(C[C@H]1CC[C@H](n2cc(-n3cc(-c4cnn5ccc(N6CCOCC6)nc45)nn3)c(C(F)F)n2)CC1)C1CCN(Cc2cccc3c2n(C)c(=O)n3C2CCC(=O)NC2=O)CC1 (stereo partly shown) [Example 15] | < 60 | – | 1 to 5 |
| – | Cn1c(=O)n(C2CCC(=O)NC2=O)c2cccc(N3CCN(C4CN(C[C@H]5CC[C@H](n6cc(-n7cc(-c8ccc9cc(C(N)=O)cnn89)nn7)c(C(F)F)n6)CC5)C4)CC3)c21 (stereo partly shown) [Example 67] | > 80 | – | < 0.5 |
| – | Cn1c(=O)n(C2CCC(=O)NC2=O)c2cccc(N3CCC4(CC3)CN(C[C@H]3CC[C@H](n5cc(-n6cc(-c7cnn8ccc(N9CCOCC9)nc78)nn6)c(C(F)F)n5)CC3)CCO4)c21 (stereo partly shown) [Example 41] | 70 to 80 | – | 1 to 5 |
| – | Cn1c(=O)n(C2CCC(=O)NC2=O)c2cccc(N3CCC4(CCN(C[C@H]5CC[C@H](n6cc(-n7cc(-c8cnn9ccc(N%10CCC(C)(O)CC%10)nc89)nn7)c(C(F)F)n6)CC5)CC4)CC3)c21 (stereo partly shown) [Example 121] | > 80 | – | < 0.5 |
| – | Cn1c(=O)n(C2CCC(=O)NC2=O)c2cccc(N3CCN(C4CCN(C[C@H]5CC[C@H](n6cc(-n7cc(-c8ccc9cc(C(N)=O)cnn89)nn7)c(C(F)F)n6)CC5)CC4)CC3)c21 (stereo partly shown) [Example 71] | > 80 | – | < 0.5 |
| – | Cn1c(=O)n(C2CCC(=O)NC2=O)c2cccc(N3CC(CN4CCC(n5cc(-n6cc(-c7ccc8cc(C(N)=O)cnn78)nn6)c(C(F)F)n5)CC4)C3)c21 (stereo not shown) [Example 73, 7-(1-(3-(difluoromethyl)-1-(1-((1-(1-(2,6-dioxopiperidin-3-yl)-3-methyl-2-oxo-2,3-dihydro-1H-benzo[d]imidazol-4-yl)azetidin-3-yl)methyl)piperidin-4-yl)-1H-pyrazol-4-yl)-1H-1,2,3-triazol-4-yl) pyrrolo[1,2-b]pyridazine-3-carboxamide] | < 60 | – | < 0.5 |
| – | Cn1c(=O)n(C2CCC(=O)NC2=O)c2cccc(N3CCC4(CCN(C[C@H]5CC[C@H](n6cc(-n7cc(-c8cnn9cc(C#N)cnc89)nn7)c(C(F)F)n6)CC5)CC4)CC3)c21 (stereo partly shown) [Compound 199] | 60 to 70 | 1 to 5 | – |
| – | Cn1c(=O)n(C2CCC(=O)NC2=O)c2cccc(N3CCC(N4CCN(C[C@H]5CC[C@H](n6cc(-n7cc(-c8ccc9cc(C(N)=O)cnn89)nn7)c(C(F)F)n6)CC5)CC4)CC3)c21 (stereo partly shown) [Example 91, 7-(1-(3-(difluoromethyl)-1-((1r,4r)-4-((4-(1-(1-(2,6-dioxopiperidin-3-yl)-3-methyl-2-oxo-2,3-dihydro-1H-benzo[d]imidazol-4-yl)piperidin-4-yl)piperazin-1-yl)methyl)cyclohexyl)-1H-pyrazol-4-yl)-1H-1,2,3-triazol-4-yl)pyrrolo[1,2-b]pyridazine-3-carboxamide] | > 80 | – | < 0.5 |
| – | CN1CCN(c2ccn3ncc(-c4cn(-c5cn([C@H]6CC[C@H](CN(C)[C@H]7CC[C@H](Nc8cccc9c8n(C)c(=O)n9C8CCC(=O)NC8=O)CC7)CC6)nc5C(F)F)nn4)c3n2)CC1 (stereo partly shown) [Compound 230] | 60 to 70 | 0.5 to 1 | – |
| – | Cn1c(=O)n(C2CCC(=O)NC2=O)c2cccc(C3CCN(C[C@H]4CC[C@H](n5cc(-n6cc(-c7cnn8ccc(N9CCOCC9)nc78)nn6)c(C(F)F)n5)CC4)CC3)c21 (stereo partly shown) [Example 11, 3-(4-(1-(((1r,4r)-4-(3-(difluoromethyl)-4-(4-(5-morpholinopyrazolo[1,5-a]pyrimidin-3-yl)-1H-1,2,3-triazol-1-yl)-1H-pyrazol-1-yl)cyclohexyl)methyl)piperidin-4-yl)-3-methyl-2-oxo-2,3-dihydro-1H-benzo[d]imidazol-1-yl)piperidine-2,6-dione] | > 80 | – | < 0.5 |
| – | Cn1c(=O)n(C2CCC(=O)NC2=O)c2cccc(N3CCOC4(CCN(C[C@H]5CC[C@H](n6cc(-n7cc(-c8cnn9ccc(N%10CCOCC%10)nc89)nn7)c(C(F)F)n6)CC5)CC4)C3)c21 (stereo partly shown) [Example 38] | < 60 | – | < 0.5 |
| – | Cn1c(=O)n(C2CCC(=O)NC2=O)c2cccc(N3CCC4(CCN(C[C@H]5CC[C@H](n6cc(-n7cc(-c8cnn9ccc(N%10CC%11(COC%11)C%10)nc89)nn7)c(C(F)F)n6)CC5)CC4)CC3)c21 (stereo partly shown) [Compound 223] | > 80 | < 0.5 | – |

— EP4759807A1, “PROTEOLYSIS TARGETING CHIMERA COMPOUND FOR DEGRADING IRAK4 AND USE THEREOF” (Shenzhen Zhongge Biological Technology Co., Ltd., priority 2023, dated 2025)
